Here are results for 18 molecules from patent US20250011311A1, “AMIDO HETEROAROMATIC COMPOUNDS” (AstraZeneca AB, priority 2022, published 2025).

Where only a bound is given, the exact number is not on record here.

Broadly, the IC50 is the concentration at which inhibition is half-maximal.

The target of data set [1] is recombinant 17bHSD13 (N2-K300) (Homo sapiens (Human), UniProt Q7Z5P4). Description: In Vitro 17bHSD13 Enzyme Assay. The settings on record: 80 nM 17bHSD13, 0.5 mM NAD, 20 μM Estradiol, 2.5 h; estradiol to estrone by LC-MS/MS. Type of data set: biochemical. The gist of the method: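 Human 17bHSD13 (N2-K300, 80 nM) with 0.5 mM NAD, 20 μM estradiol and varied compound in 50 mM Tris-Cl pH 7.4, 5 mM EDTA, 0.01% DDM. Estrone/(estrone+estradiol) ratio read by LC-MS/MS (APCI, positive MRM). Inhibition normalised to DMSO and a known-inhibitor control; IC50 from curve fit.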
recombinant 17bHSD13 (N2-K300), sequence (Q7Z5P4 2-300): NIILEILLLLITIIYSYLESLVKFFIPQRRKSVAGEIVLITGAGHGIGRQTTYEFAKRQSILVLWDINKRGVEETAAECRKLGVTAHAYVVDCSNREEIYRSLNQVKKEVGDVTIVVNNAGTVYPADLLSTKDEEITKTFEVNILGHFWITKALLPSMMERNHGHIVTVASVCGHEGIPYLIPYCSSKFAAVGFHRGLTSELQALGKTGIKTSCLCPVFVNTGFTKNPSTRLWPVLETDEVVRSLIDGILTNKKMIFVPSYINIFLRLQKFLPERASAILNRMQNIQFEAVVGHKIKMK

The target in data set [2] is recombinant 17bHSD4 (M1-N311) (Homo sapiens (Human), UniProt P51659). The data set is described as follows: In Vitro 17bHSD4 Enzyme Assay. Type of data set: biochemical. Conditions: 40 nM 17bHSD4, 0.125 mM NAD, 15 μM Estradiol, 1.5 h; NADH fluorescence; read-out: 17HSD17b4 Enzyme assay IC50.
recombinant 17bHSD4 (M1-N311), sequence (P51659 1-311): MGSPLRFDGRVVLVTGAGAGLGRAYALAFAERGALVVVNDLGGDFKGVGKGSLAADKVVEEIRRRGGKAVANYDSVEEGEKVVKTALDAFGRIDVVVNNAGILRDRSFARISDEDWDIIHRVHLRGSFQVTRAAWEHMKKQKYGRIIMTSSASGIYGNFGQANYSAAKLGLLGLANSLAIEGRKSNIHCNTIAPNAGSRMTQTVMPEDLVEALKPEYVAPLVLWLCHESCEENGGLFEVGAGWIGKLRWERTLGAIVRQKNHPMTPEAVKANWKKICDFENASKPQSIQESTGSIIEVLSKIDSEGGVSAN
Data set [3] addresses over expressed HSD17β13 in HEK293S cells (Homo sapiens (Human), UniProt Q7Z5P4). The data set is described as follows: In Vitro 17bHSD13 Cell Assay. Type of data set: cell-based. The settings on record: HEK293S cells over expressing HSD17β13; estradiol to estrone conversion, 18 h, LC-MS/MS; read-out: 17bHSD1713 Cell assay IC50. The gist of the method: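 HEK293S cells overexpressing HSD17β13 convert estradiol to estrone; product read by LC-MS/MS (APCI, positive MRM) as AUC ratio estrone/(estrone+estradiol). Effect normalised between DMSO and maximal inhibition by a known inhibitor control; IC50 from curve fit.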

The test system of data set [4] is human hepatocytes. The data set is described as follows: Assay A: Metabolic Stability in Human Hepatocytes. Conditions: cryopreserved human hepatocytes, 10^6 viable cells/mL, 1 μM compound, 37° C. Type of data set: in vitro ADME. An outline of the steps:
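Cryopreserved hepatocytes (10^6 viable cells/mL) at 37° C with 1 μM test compound, sampled 0.5–120 min and quenched in MeCN. Parent measured by LC-MS/MS; CLint (μL/min/10^6 cells) from the slope of ln(parent concentration) vs time.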

For data set [5], the target named is CYP2C9 (Homo sapiens (Human), UniProt P11712). The data set is described as follows: Assay B: Cytochrome P450 Inhibition 2C9.
CYP2C9, sequence (P11712 whole entry): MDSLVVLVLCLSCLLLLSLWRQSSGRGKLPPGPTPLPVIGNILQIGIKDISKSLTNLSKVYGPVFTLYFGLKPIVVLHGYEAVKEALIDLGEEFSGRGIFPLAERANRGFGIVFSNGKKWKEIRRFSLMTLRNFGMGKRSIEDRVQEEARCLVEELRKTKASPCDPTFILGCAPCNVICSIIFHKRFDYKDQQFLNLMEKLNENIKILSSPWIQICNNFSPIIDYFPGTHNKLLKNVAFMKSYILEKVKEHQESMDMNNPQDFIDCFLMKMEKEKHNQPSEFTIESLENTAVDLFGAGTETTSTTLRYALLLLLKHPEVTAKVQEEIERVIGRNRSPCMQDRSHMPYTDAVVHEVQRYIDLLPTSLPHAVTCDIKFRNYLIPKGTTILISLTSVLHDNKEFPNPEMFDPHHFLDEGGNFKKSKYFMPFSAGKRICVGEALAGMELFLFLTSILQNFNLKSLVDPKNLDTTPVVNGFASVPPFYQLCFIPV

over expressed HSD17β13 in HEK293S cells, sequence (Q7Z5P4 20-300): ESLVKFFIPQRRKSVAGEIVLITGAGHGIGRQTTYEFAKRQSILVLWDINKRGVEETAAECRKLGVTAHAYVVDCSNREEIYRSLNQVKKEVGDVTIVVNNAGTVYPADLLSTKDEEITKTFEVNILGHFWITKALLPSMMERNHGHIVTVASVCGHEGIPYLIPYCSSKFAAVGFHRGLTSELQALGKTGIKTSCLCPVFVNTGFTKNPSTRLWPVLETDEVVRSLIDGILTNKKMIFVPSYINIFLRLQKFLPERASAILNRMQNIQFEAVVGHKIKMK

With `C[C@@H]1C[C@H](C)CN(C(=O)c2noc(-c3cc(F)c(F)c(O)c3F)n2)C1` [Example 37, ((3R,5S)-3,5-Dimethylpiperidin-1-yl)(5-(2,4,5-trifluoro-3-hydroxyphenyl)-1,2,4-oxadiazol-3-yl)methanone], the IC50 in data set [1] turned out to be 0.057 µM; in data set [2] it was 30.5 µM; in data set [3], 0.03 µM; in data set [5], 7.8 µM. Besides, the “Assay A: Human Heps Met Clint GMean CLint (μl/min/1E6)” value in data set [4] was found to be 6.7 μl/min/1E6.

As to `C[C@@H]1CC[C@H](C)N1C(=O)c1noc(-c2cc(F)c(F)c(O)c2F)n1` [Example 38, ((2R,5S)-2,5-Dimethylpyrrolidin-1-yl)(5-(2,4,5-trifluoro-3-hydroxyphenyl)-1,2,4-oxadiazol-3-yl)methanone], the IC50 was determined as 0.207 µM in data set [1], 24 µM in data set [2], 0.27 µM in data set [3] and 14.8 µM in data set [5]. For the same molecule, the “Assay A: Human Heps Met Clint GMean CLint (μl/min/1E6)” value in data set [4] amounted to 2.1 μl/min/1E6.

In the case of `O=C(c1noc(-c2cc(F)c(F)c(O)c2F)n1)N1CCOC2CCCC21` (stereo not drawn) [Example 41, (Hexahydrocyclopenta[b][1,4]oxazin-4(4aH)-yl)(5-(2,4,5-trifluoro-3-hydroxyphenyl)-1,2,4-oxadiazol-3-yl)methanone], the IC50 in data set [1] was 0.082 µM; in data set [2], more than 50 µM; in data set [3] it was 0.09 µM; in data set [5], 15.4 µM. For the same molecule, the “Assay A: Human Heps Met Clint GMean CLint (μl/min/1E6)” value in data set [4] came to 5.9 μl/min/1E6.

Take `O=C(c1noc(-c2cc(F)c(F)c(O)c2F)n1)N1CC2CCC(C1)C2(F)F` [Example 43, (8,8-difluoro-3-azabicyclo[3.2.1]octan-3-yl)(5-(2,4,5-trifluoro-3-hydroxyphenyl)-1,2,4-oxadiazol-3-yl)methanone]: the IC50 in data set [1] turned out to be 0.339 µM; in data set [2] it was 39 µM; in data set [3], 0.24 µM; in data set [5], 13.9 µM. Also, the “Assay A: Human Heps Met Clint GMean CLint (μl/min/1E6)” value in data set [4] was found to be 3.3 μl/min/1E6.

As for `CC(C)CC1CN(C(=O)c2noc(-c3cc(F)c(F)c(O)c3F)n2)CCO1` (stereo not drawn) [Example 47, (2-Isobutylmorpholino)(5-(2,4,5-trifluoro-3-hydroxyphenyl)-1,2,4-oxadiazol-3-yl)methanone], the IC50 stood at 0.183 µM in data set [1], 47.4 µM in data set [2], 0.23 µM in data set [3] and 1 µM in data set [5]. Also, the “Assay A: Human Heps Met Clint GMean CLint (μl/min/1E6)” value in data set [4] was 17.4 μl/min/1E6.

In the case of `C[C@@H]1CN(C(=O)c2noc(-c3cc(F)c(F)c(O)c3F)n2)[C@H](C)CO1` [Example 50, ((2R,5R)-2,5-Dimethylmorpholino)(5-(2,4,5-trifluoro-3-hydroxyphenyl)-1,2,4-oxadiazol-3-yl)methanone], the IC50 was 0.499 µM in data set [1], more than 50 µM in data set [2], 0.22 µM in data set [3] and 17.2 µM in data set [5]. Besides, the “Assay A: Human Heps Met Clint GMean CLint (μl/min/1E6)” value in data set [4] stood at 4.3 μl/min/1E6.

With `O=C(c1noc(-c2cc(F)c(F)c(O)c2F)n1)N1CCN(CCCOc2ccc(F)cc2)CC1` [Example 57, (4-(3-(4-Fluorophenoxy)propyl)piperazin-1-yl)(5-(2,4,5-trifluoro-3-hydroxyphenyl)-1,2,4-oxadiazol-3-yl)methanone], the IC50 in data set [1] stood at 0.088 µM; in data set [2], 32.3 µM; in data set [3], 0.14 µM; in data set [5], 3.7 µM. Also, the “Assay A: Human Heps Met Clint GMean CLint (μl/min/1E6)” value in data set [4] worked out at 9.5 μl/min/1E6.

Turning to `N#Cc1cccc2c1CCN(C(=O)c1noc(-c3cc(F)c(F)c(O)c3F)n1)C2` [Example 66, 2-(5-(2,4,5-Trifluoro-3-hydroxyphenyl)-1,2,4-oxadiazole-3-carbonyl)-1,2,3,4-tetrahydroisoquinoline-5-carbonitrile], the IC50 in data set [1] turned out to be 0.187 µM; in data set [2], 19.3 µM; in data set [3] it was 0.25 µM; in data set [5], 3.1 µM. Further, in data set [4], the “Assay A: Human Heps Met Clint GMean CLint (μl/min/1E6)” value came to 12.1 μl/min/1E6.

In the case of `Cn1nnc(-c2cnc(N3CCN(C(=O)c4noc(-c5cc(F)c(F)c(O)c5F)n4)CC3)c(Cl)c2)n1` [Example 67, (4-(3-Chloro-5-(2-methyl-2H-tetrazol-5-yl)pyridin-2-yl)piperazin-1-yl)(5-(2,4,5-trifluoro-3-hydroxyphenyl)-1,2,4-oxadiazol-3-yl)methanone], the concentration for half-maximal inhibition (IC50) in data set [1] came to 0.079 µM; in data set [2] it was 4 µM; in data set [3], 0.53 µM; in data set [5] it was 3 µM. For the same molecule, the “Assay A: Human Heps Met Clint GMean CLint (μl/min/1E6)” value in data set [4] is recorded as 6.6 μl/min/1E6.

As to `O=C(c1noc(-c2cc(F)c(F)c(O)c2F)n1)N1CCN(CCOc2ccc(Br)cn2)CC1` [Example 69, (4-(2-((5-Bromopyridin-2-yl)oxy)ethyl)piperazin-1-yl)(5-(2,4,5-trifluoro-3-hydroxyphenyl)-1,2,4-oxadiazol-3-yl)methanone], the IC50 in data set [1] turned out to be 0.131 µM; in data set [2] it was 48.7 µM; in data set [3], 0.11 µM; in data set [5] it was 2.4 µM. In addition, in data set [4], the “Assay A: Human Heps Met Clint GMean CLint (μl/min/1E6)” value is listed as 13.1 μl/min/1E6.

As to `O=C(c1noc(-c2cc(F)c(F)c(O)c2F)n1)N1CC(c2ccc(F)cc2)C1` [Example 74, (3-(4-Fluorophenyl)azetidin-1-yl)(5-(2,4,5-trifluoro-3-hydroxyphenyl)-1,2,4-oxadiazol-3-yl)methanone], the IC50 in data set [1] is 0.089 µM; in data set [2], 21.1 µM; in data set [3], 3 µM; in data set [5] it was 1.8 µM. The “Assay A: Human Heps Met Clint GMean CLint (μl/min/1E6)” value in data set [4] was found to be 14.4 μl/min/1E6.

With `CCCC1CCN(C(=O)c2noc(-c3cc(F)c(F)c(O)c3F)n2)C1` (stereo not drawn) [Example 76, (3-Propylpyrrolidin-1-yl)(5-(2,4,5-trifluoro-3-hydroxyphenyl)-1,2,4-oxadiazol-3-yl)methanone], the IC50 in data set [1] is 0.128 µM; in data set [2], 44.8 µM; in data set [3] it was 0.14 µM; in data set [5], 2.6 µM. For the same molecule, the “Assay A: Human Heps Met Clint GMean CLint (μl/min/1E6)” value in data set [4] was 18.2 μl/min/1E6.

Take `N#Cc1ccc2c(c1)CN(C(=O)c1noc(-c3cc(F)c(F)c(O)c3F)n1)CC2` [Example 86, 2-(5-(2,4,5-Trifluoro-3-hydroxyphenyl)-1,2,4-oxadiazole-3-carbonyl)-1,2,3,4-tetrahydroisoquinoline-7-carbonitrile]: the IC50 in data set [1] came out at 0.102 µM; in data set [2] it was 8.5 µM; in data set [3], 0.54 µM; in data set [5], 4 µM. In addition, in data set [4], the “Assay A: Human Heps Met Clint GMean CLint (μl/min/1E6)” value is 12.3 μl/min/1E6.

On to `C[C@@H]1CN(C(=O)c2noc(-c3cc(F)c(F)c(O)c3F)n2)C[C@H](C)O1` [Example 87, ((2R,6S)-2,6-Dimethylmorpholino)(5-(2,4,5-trifluoro-3-hydroxyphenyl)-1,2,4-oxadiazol-3-yl)methanone], for which the half-inhibitory concentration (IC50) was 0.285 µM in data set [1], more than 200 µM in data set [2], 0.06 µM in data set [3] and 15.4 µM in data set [5]. The “Assay A: Human Heps Met Clint GMean CLint (μl/min/1E6)” value in data set [4] was found to be 2.7 μl/min/1E6.

As for `C[C@@H]1CN(C(=O)c2noc(-c3cc(F)c(F)c(O)c3F)n2)C[C@@H](C)O1` [Example 88, ((2R,6R)-2,6-Dimethylmorpholino)(5-(2,4,5-trifluoro-3-hydroxyphenyl)-1,2,4-oxadiazol-3-yl)methanone], the IC50 came to 0.468 µM in data set [1], 36.4 µM in data set [2], 0.19 µM in data set [3] and 16.8 µM in data set [5]. Moreover, the “Assay A: Human Heps Met Clint GMean CLint (μl/min/1E6)” value in data set [4] is recorded as 3.6 μl/min/1E6.

As for `C[C@@H]1CN(C(=O)c2cc(-c3cc(F)c(F)c(O)c3F)on2)C[C@H](C)O1` [Example 89, ((2R,6S)-2,6-Dimethylmorpholino)(5-(2,4,5-trifluoro-3-hydroxyphenyl)isoxazol-3-yl)methanone], the IC50 is 0.168 µM in data set [1], more than 50 µM in data set [2], 0.07 µM in data set [3] and 3.7 µM in data set [5]. In data set [4], the “Assay A: Human Heps Met Clint GMean CLint (μl/min/1E6)” value is given as 14.6 μl/min/1E6.

For `O=C(c1noc(-c2cc(F)c(F)c(O)c2F)n1)N1CC[C@H](Oc2ccccc2)C1` [Example 93, (S)-(3-Phenoxypyrrolidin-1-yl)(5-(2,4,5-trifluoro-3-hydroxyphenyl)-1,2,4-oxadiazol-3-yl)methanone], the IC50 in data set [1] was 0.063 µM; in data set [2] it was 22.2 µM; in data set [3], 0.7 µM; in data set [5], 1.3 µM. Also, in data set [4], the “Assay A: Human Heps Met Clint GMean CLint (μl/min/1E6)” value is 15.6 μl/min/1E6.

For the molecule `O=C(c1noc(-c2cc(F)c(F)c(O)c2F)n1)N1CCCC(OCc2ccccc2)C1` (stereo not drawn) [Example 94, (3-(Benzyloxy)piperidin-1-yl)(5-(2,4,5-trifluoro-3-hydroxyphenyl)-1,2,4-oxadiazol-3-yl)methanone], the IC50 in data set [1] is 0.048 µM; in data set [2], 23.6 µM; in data set [3] it was 1.42 µM; in data set [5] it was 1.2 µM. The “Assay A: Human Heps Met Clint GMean CLint (μl/min/1E6)” value in data set [4] came out at 17.3 μl/min/1E6.
